pEC50, pIC50, pKi: −log10 of the molar value. Values after ≈ are worked out from the molar mass of the structure shown.
Columns and labels:
Prothrombin = Prothrombin (Homo sapiens, UniProt P00734); test: Inhibition of human thrombin using Boc-Gln-Ala-Arg-7-amido-4-methyl coumarin hydrobromide
[1] = Terminal half life in NMRI mouse at 1 mg/kg, sc; details: in vivo, read-out: beta t1/2 (converted)
DU-145 [2] = test: Cytotoxicity against human DU145 cells assessed as inhibition of number of colonies formed in soft agar measured on day 8; type: functional, cell-based; details: DU-145, 192 h
[3] = Cmax in NMRI mouse at 1 mg/kg, sc; details: in vivo
DU-145 [4] = test: Cytotoxicity against human DU145 cells assessed as cell survival at 10 uM after 72 hrs by calcein AM assay; type: functional; details: DU-145, 72 h, read-out: Activity
[5] = AUC (0 to infinity) in NMRI mouse at 1 mg/kg, sc; details: plasma
[6] = Aqueous solubility of the compound; type: physicochemical; details: buffer
Mus musculus [7] = test: Toxicity in SCID mouse xenografted with human DU145 cells assessed as body weight change at 0.5 mg/kg, sc administered twice daily for 31 days; type: organism-based, DU-145; design: dose 0.5 mg/kg, route subcutaneous; details: in vivo, 744 h
PC-3 [8] = test: Antiinvasion activity in human PC3 cells assessed as inhibition of FBS-induced cell invaded to lower surface at 10 uM for 3 days by matrigel assay; type: functional; details: PC-3, 72 h
Mus musculus [9] = test: Toxicity in SCID mouse xenografted with human DU145 cells assessed as clinical signs at 0.5 mg/kg, sc administered twice daily for 31 days; type: organism-based, DU-145; design: dose 0.5 mg/kg, route subcutaneous; details: in vivo, 744 h
Cytochrome P450 3A4 = Cytochrome P450 3A4 (Homo sapiens, UniProt P08684); test: Inhibition of CYP3A4 (unknown origin); type: ADME
Chain of Cytochrome P450 3A4 (P08684 whole entry): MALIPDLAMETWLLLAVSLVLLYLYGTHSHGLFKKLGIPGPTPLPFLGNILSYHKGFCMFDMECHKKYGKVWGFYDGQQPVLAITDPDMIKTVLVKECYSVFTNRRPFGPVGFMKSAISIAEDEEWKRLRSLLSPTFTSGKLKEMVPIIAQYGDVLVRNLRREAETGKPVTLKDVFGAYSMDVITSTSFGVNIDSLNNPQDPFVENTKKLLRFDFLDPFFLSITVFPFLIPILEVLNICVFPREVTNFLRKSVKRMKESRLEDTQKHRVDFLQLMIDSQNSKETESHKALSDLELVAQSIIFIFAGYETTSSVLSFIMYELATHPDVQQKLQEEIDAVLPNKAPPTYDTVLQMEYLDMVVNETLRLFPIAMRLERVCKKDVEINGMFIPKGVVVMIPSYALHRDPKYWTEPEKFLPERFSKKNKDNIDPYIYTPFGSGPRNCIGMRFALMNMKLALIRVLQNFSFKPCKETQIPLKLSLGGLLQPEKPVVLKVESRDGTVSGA

Cytochrome P450 2C19 = Cytochrome P450 2C19 (Homo sapiens, UniProt P33261); test: Inhibition of CYP2C19 (unknown origin); type: ADME
Chain of Cytochrome P450 2C19 (P33261 whole entry): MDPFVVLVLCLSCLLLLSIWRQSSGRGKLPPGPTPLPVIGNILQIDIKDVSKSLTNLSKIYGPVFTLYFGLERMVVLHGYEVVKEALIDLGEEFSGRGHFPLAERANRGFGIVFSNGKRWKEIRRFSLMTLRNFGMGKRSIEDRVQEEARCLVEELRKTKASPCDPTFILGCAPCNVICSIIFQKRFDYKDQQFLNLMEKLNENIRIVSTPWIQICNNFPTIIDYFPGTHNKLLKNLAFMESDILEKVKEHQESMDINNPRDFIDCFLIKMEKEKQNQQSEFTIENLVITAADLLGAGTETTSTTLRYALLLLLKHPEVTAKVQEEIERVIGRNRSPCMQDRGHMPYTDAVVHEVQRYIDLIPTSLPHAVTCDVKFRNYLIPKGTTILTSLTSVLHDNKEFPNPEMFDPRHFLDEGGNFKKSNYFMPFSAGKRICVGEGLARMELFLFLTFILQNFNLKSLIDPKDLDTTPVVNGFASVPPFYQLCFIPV

PC-3 [10] = test: Cytotoxicity against human PC3 cells assessed as inhibition of number of colonies formed in soft agar measured on day 8; type: functional, cell-based; details: PC-3, 192 h
[11] = Metabolic stability in rat liver microsomes assessed as compound remaining after 20 mins; type: ADME; details: read-out: Stability
[12] = Tmax in NMRI mouse at 1 mg/kg, sc; details: in vivo
[13] = Metabolic stability in human liver microsomes assessed as compound remaining after 20 mins; type: ADME; details: read-out: Stability
Cytochrome P450 2D6 = Cytochrome P450 2D6 (Homo sapiens, UniProt P10635); test: Inhibition of CYP2D6 (unknown origin); type: ADME
Chain of Cytochrome P450 2D6 (P10635 whole entry): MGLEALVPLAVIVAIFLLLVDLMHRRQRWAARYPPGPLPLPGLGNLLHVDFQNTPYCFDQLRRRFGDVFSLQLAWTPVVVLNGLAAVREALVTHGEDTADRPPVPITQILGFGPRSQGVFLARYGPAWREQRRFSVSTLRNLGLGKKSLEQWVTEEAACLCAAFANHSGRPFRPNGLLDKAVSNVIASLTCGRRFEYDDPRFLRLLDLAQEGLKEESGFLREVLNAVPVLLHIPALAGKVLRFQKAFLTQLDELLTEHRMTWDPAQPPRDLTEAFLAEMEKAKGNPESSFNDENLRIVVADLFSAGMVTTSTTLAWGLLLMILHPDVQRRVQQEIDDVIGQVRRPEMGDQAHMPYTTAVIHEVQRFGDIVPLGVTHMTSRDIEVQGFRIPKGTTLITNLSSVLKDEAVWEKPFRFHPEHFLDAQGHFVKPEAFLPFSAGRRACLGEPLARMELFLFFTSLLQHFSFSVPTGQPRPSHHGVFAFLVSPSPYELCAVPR

PC-3 [14] = test: Cytotoxicity against human PC3 cells assessed as cell survival at 10 uM after 72 hrs by calcein AM assay; type: functional; details: PC-3, 72 h, read-out: Activity
[15] = target: T1, Suppressor of tumorigenicity 14 protein (Homo sapiens, UniProt Q9Y5Y6); test: Inhibition of recombinant matriptase (unknown origin) using Boc-Gln-Ala-Arg-7-amido-4-methyl coumarin hydrobromide
T1 sequence (Q9Y5Y6 whole entry): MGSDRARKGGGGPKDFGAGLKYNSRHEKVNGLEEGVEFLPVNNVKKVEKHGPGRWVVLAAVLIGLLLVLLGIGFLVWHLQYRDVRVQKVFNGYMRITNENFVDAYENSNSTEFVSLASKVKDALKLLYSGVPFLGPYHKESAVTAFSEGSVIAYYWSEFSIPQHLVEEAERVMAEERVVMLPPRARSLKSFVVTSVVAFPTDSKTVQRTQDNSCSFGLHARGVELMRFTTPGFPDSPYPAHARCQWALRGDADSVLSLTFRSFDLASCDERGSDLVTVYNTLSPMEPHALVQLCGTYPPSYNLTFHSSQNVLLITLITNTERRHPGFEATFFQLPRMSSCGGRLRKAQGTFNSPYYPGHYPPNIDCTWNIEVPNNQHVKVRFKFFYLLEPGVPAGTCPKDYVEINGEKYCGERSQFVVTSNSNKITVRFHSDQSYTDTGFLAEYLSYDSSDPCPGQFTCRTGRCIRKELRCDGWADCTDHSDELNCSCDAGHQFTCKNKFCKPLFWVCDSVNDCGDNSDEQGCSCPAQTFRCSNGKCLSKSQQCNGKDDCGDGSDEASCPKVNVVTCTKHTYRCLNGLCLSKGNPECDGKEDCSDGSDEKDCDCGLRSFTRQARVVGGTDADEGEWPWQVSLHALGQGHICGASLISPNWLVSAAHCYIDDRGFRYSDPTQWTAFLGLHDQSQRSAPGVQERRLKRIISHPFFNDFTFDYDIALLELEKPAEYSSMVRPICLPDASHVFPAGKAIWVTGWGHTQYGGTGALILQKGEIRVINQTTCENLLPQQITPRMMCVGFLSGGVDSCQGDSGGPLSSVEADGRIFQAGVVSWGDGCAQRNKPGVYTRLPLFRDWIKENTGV

[16] = Antiinvasion activity in human LNCaP-C42B4 cells assessed as inhibition of FBS-induced cell invaded to lower surface at 10 uM for 3 days by matrigel assay; type: functional; details: LNCaP-C42B4, 72 h
[17] = Cytotoxicity against human LNCaP-C42B4 cells assessed as inhibition of number of colonies formed in soft agar measured on day 8; type: functional, cell-based; details: LNCaP-C42B4, 192 h
Trypsin = Trypsin (Homo sapiens, UniProt P07477+P07478+P35030); test: Inhibition of human pancreas Trypsin using Boc-Gln-Ala-Arg-7-amido-4-methyl coumarin hydrobromide; type: protein assay
Cytochrome P450 2C9 = Cytochrome P450 2C9 (Homo sapiens, UniProt P11712); test: Inhibition of CYP2C9 (unknown origin); type: ADME
Chain of Cytochrome P450 2C9 (P11712 whole entry): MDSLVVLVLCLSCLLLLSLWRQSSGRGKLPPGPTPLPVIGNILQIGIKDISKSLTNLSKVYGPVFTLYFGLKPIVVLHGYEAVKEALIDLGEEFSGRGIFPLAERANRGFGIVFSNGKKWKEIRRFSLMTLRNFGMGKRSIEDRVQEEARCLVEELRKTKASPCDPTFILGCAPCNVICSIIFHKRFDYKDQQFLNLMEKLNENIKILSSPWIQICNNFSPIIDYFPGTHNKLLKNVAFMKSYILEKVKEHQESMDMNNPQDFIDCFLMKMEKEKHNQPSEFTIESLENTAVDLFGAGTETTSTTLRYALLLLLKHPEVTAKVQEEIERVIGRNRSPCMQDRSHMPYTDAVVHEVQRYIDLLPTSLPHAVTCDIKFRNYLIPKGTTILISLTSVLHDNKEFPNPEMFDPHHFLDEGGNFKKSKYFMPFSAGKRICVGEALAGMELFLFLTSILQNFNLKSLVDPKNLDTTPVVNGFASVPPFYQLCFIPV

Coagulation factor X = Coagulation factor X (Bos taurus, UniProt P00743); test: Inhibition of bovine plasma factor 10a using CH3OCO-D-CHA-Gly-Arg-pNA.AcoH substrate
Chain of Coagulation factor X (P00743 41-180 limits assumed): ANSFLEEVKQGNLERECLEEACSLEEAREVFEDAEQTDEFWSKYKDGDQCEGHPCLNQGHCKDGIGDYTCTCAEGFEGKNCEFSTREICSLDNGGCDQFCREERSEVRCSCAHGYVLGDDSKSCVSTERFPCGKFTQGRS
Chain of Coagulation factor X (P00743 234-492 limits assumed): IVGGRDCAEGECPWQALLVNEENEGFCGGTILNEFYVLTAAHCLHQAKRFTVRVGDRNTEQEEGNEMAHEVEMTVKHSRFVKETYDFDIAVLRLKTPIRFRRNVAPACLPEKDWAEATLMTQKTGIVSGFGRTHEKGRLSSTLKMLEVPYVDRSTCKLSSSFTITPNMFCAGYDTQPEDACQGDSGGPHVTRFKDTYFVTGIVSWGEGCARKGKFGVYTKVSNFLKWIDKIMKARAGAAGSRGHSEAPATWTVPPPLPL

DU-145 [18] = test: Antitumor activity against human DU145 cells xenografted in SCID mouse assessed as tumor growth inhibition at 0.5 mg/kg, sc administered twice daily for 31 days; type: functional; details: DU-145, sc, 744 h, route subcutaneous, read-out: TGI
[19] = Metabolic stability in mouse liver microsomes assessed as compound remaining after 20 mins; type: ADME; details: read-out: Stability
DU-145 [20] = test: Antiinvasion activity in human DU145 cells assessed as inhibition of FBS-induced cell invaded to lower surface at 10 uM for 3 days by matrigel assay; type: functional; details: DU-145, 72 h
[21] = Cytotoxicity against human LNCaP-C42B4 cells assessed as cell survival at 10 uM after 72 hrs by calcein AM assay; type: functional; details: LNCaP-C42B4, 72 h, read-out: Activity

pKi (Prothrombin): 5.65
half-life [1]: 3.3 h
Cmax [3]: 484 ng/mL
AUC(0-inf) [5]: 1850 ng·h/mL
solubility [6]: 200 µM (≈ 97.3 µg/mL)
pIC50 (Cytochrome P450 3A4): < 4.52
pIC50 (Cytochrome P450 2C19): < 4.52
remaining at 20 min [11]: 91%
Tmax [12]: 0.75 h
remaining at 20 min [13]: 97%
pIC50 (Cytochrome P450 2D6): < 4.52
pKi [15]: 8.52
Ki (Trypsin): 894 nM
pIC50 (Cytochrome P450 2C9): < 4.52
pKi (Coagulation factor X): 6.30
remaining at 20 min [19]: 83%
Structure (SMILES): N=C(N)c1ccc(Oc2cc(NC(=O)[C@H]3CC[C@H](N)CC3)cc(Oc3ccc(C(=N)N)cc3)c2)cc1
pEC50 (DU-145 [2]): 7.39
viability at 10 µM (DU-145 [4]): 100%
Activity (Mus musculus [7]): < 5%
inhibition at 10 µM (PC-3 [8]): 86%
Activity (Mus musculus [9]): Non-toxic
pEC50 (PC-3 [10]): 6.98
viability at 10 µM (PC-3 [14]): 94%
inhibition at 10 µM [16]: 63%
pEC50 [17]: 5.81
inhibition in vivo at 0.5 mg/kg (DU-145 [18]): 52%
inhibition at 10 µM (DU-145 [20]): 98%
viability at 10 µM [21]: 90%

From ChEMBL document CHEMBL3286254, “Structure-guided discovery of 1,3,5 tri-substituted benzenes as potent and selective matriptase inhibitors exhibiting in vivo antitumor efficacy” (Bioorg Med Chem, 2014)
